Results reported in US12599672B2, “KRAS proteolysis targeting chimeras” (PAQ Therapeutics Inc., priority 2023, dated 2026).

Key:
KRAS G12D = molecular target: T1, KRAS G12D (Homo sapiens, UniProt P01116, G12D); assay: KRAS G12D HiBit assay; format: cell-based; settings: AsPc-1-KRAS (G12D)-HiBit-KI cell, compound treatment for 24 hours; for DC50: absolute DC50
T1 construct: AsPc-1-KRAS (G12D)-HiBit-KI cell (Pharmaron); host or cells: AsPc-1-KRAS (G12D)-HiBit-KI cells (HiBiT knock-in at the endogenous KRAS locus)
Protocol: Day 1. […] Allowed cells to reach approximately 80% confluence before splitting. Rinsed cultivated cells in T-75 flasks with 5 mL PBS (Solarbio, P1020-500). […] Inactivated trypsin by adding excessive serum containing medium. Harvested the cells from flask into cell culture medium and counted the cell number.
Day 2. Test compounds were dissolved at 0.3 mM in DMSO (Solarbio, D8371) as stock solution. […] Performed 3-fold, 10-points dilution via transferring 15 μL compound into 30 μL DMSO by using TECAN liquid handler (TECAN, Freedom EVO200).
Day 3. After compound treatment for 24 hours, removed the plate from incubators and equilibrated at room temperature for 15 minutes. Prepared the HiBit reagent (Promega, N3040) by mixing 10 mL of Nano-Glo®-HiBiT Lytic Buffer with 200 μL of Nano-Glo®-HiBiT Lytic Substrate and 100 μL of LgBiT Protein. Added 20 μL of HiBit reagent into each well of the cell plate and spun the plates at room temperature at 1,000 RPM for 1 minute.
The inhibition activity was calculated using the following formula:
(§1) [formula] where HC (high control) is obtained from cells treated with 0.1% DMSO only.

KRAS G12V = molecular target: T2, KRAS G12V (Homo sapiens, UniProt P01116, G12V); assay: KRAS G12V HiBit assay; format: cell-based; settings: SW620-KRAS (G12V)-HiBit-KI cells, compound treatment for 24 hours, class symbols
T2 construct: SW620-KRAS (G12V)-HiBit-KI cell (Pharmaron); host or cells: SW620-KRAS (G12V)-HiBit-KI cells (HiBiT knock-in at the endogenous KRAS locus)
Protocol: Day 1. […] Rinsed cultivated cells in T-75 flasks with 5 mL PBS (Solarbio, P1020-500). […] Inactivated trypsin by adding excessive serum containing medium. Harvested the cells from flask into cell culture medium and counted the cell number.
Day 2. Test compounds were dissolved at 0.3 mM in DMSO (Solarbio, D8371) as stock solution. […] Performed 3-fold, 10-points dilution via transferring 15 μL compound into 30 μL DMSO by using TECAN liquid handler (TECAN, Freedom EVO200). […] After compound treatment for 24 hours, the plate was removed from incubators and equilibrated at room temperature for 15 minutes. Prepare the HiBit reagent (Promega, N3040) by mixing 10 mL of Nano-Glo®-HiBiT Lytic Buffer with 200 μL of Nano-Glo®-HiBiT Lytic Substrate and 100 μL of LgBiT Protein. Added 20 μL of HiBit reagent into each well of the cell plate and spun the plates at room temperature at 1,000 RPM for 1 minute.
The degradation activity was calculated using the following formula:
as §1

[1] = numeric bounds given in place of class symbols

T2 sequence (P01116 1-188 isoform P01116-2 G12V): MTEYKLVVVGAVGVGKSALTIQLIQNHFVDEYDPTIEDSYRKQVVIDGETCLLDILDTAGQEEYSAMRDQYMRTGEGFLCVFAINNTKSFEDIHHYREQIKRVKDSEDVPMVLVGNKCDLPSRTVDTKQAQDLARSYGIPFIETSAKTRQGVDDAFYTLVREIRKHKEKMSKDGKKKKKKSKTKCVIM
T1 sequence (P01116 1-188 isoform P01116-2 G12D): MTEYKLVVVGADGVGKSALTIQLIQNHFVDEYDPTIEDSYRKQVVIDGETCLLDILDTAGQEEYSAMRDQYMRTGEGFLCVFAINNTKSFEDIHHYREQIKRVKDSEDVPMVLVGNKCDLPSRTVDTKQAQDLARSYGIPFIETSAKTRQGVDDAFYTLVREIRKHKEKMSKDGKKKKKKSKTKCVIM

DC50 (KRAS G12D; class symbols) [nM] | DC50 (KRAS G12V) [nM] | SMILES | further results
– | > 100 | C[C@H]1CN(CCOCCOc2ccc3c(c2)n(C)c(=O)n3C2CCC(=O)NC2=O)CCCN1c1nccc(-c2noc([C@]3(C)CCCc4sc(N)c(C#N)c43)n2)n1 (some centres unmarked) [Compound 216] | –
– | > 100 | C[C@H]1CN(CCOCCOCCOCCOc2ccc3c(c2)n(C)c(=O)n3C2CCC(=O)NC2=O)CCCN1c1nccc(-c2noc([C@@]3(C)CCCc4sc(N)c(C#N)c43)n2)n1 (stereo partly drawn) [Compound 200, (4S)-2-amino-4-(3-(2-((2S)-4-(2-(2-(2-(2-((1-(2,6-dioxopiperidin-3-yl)-3-methyl-2-oxo-2,3-dihydro-1H-benzo[d]imidazol-5-yl)oxy)ethoxy)ethoxy)ethoxy)ethyl)-2-methyl-1,4-diazepan-1-yl)pyrimidin-4-yl)-1,2,4-oxadiazol-5-yl)-4-methyl-4,5,6,7-tetrahydrobenzo[b]thiophene-3-carbonitrile] | –
– | > 100 | C[C@H]1CN(CCOCCOCCOc2ccc3c(c2)n(C)c(=O)n3C2CCC(=O)NC2=O)CCCN1c1nccc(-c2noc([C@@]3(C)CCCc4sc(N)c(C#N)c43)n2)n1 (stereo partly drawn) [Compound 202, (4S)-2-amino-4-(3-{2-[(2S)-4-{2-[2-(2-{[1-(2,6-dioxopiperidin-3-yl)-3-methyl-2-oxo-1,3-benzodiazol-5-yl]oxy}ethoxy)ethoxy]ethyl}-2-methyl-1,4-diazepan-1-yl]pyrimidin-4-yl}-1,2,4-oxadiazol-5-yl)-4-methyl-6,7-dihydro-5H-1-benzothiophene-3-carbonitrile] | –
– | > 100 | C[C@H]1CN(CCOCCOCCOc2ccc3c(c2)n(C)c(=O)n3C2CCC(=O)NC2=O)CCCN1c1nccc(-c2noc([C@]3(C)CCCc4sc(N)c(C#N)c43)n2)n1 (some centres unmarked) [Compound 217] | –
– | > 100 | C[C@H]1CN(CCOCCOc2cccc3c2n(C)c(=O)n3C2CCC(=O)NC2=O)CCCN1c1nccc(-c2noc([C@@]3(C)CCCc4sc(N)c(C#N)c43)n2)n1 (some centres unmarked) [Compound 221] | –
– | > 100 | C[C@H]1CN(CCOCCOCCOCCOc2cccc3c2n(C)c(=O)n3C2CCC(=O)NC2=O)CCCN1c1nccc(-c2noc([C@@]3(C)CCCc4sc(N)c(C#N)c43)n2)n1 (some centres unmarked) [Compound 219] | –
– | > 100 | C[C@H]1CN(CCOCCOCCOc2cccc3c2n(C)c(=O)n3C2CCC(=O)NC2=O)CCCN1c1nccc(-c2noc([C@@]3(C)CCCc4sc(N)c(C#N)c43)n2)n1 (some centres unmarked) [Compound 220] | –
> 300 | – | C#Cc1c(F)ccc2cccc(-c3ncc4c(N5CCC[C@@](C)(O)C5)nc(OCC5(CN6CCC7(CCC(c8cccc9c8n(C)c(=O)n9C8CCC(=O)NC8=O)CC7)CC6)CC5)nc4c3F)c12 (some centres unmarked) [Compound 66] | –
> 300 | – | C#Cc1c(F)ccc2cccc(-c3ncc4c(N5CCC[C@@](C)(O)C5)nc(OCC5(CN6CCC(N7CCN(c8ccc9c(c8)n(C)c(=O)n9C8CCC(=O)NC8=O)CC7)CC6)CC5)nc4c3F)c12 (some centres unmarked) [Compound 29] | –

The remaining lines, values behind:

SMILES | DC50 (KRAS G12D; class symbols) [nM] | DC50 (KRAS G12V) [nM] | further results
C#Cc1c(F)ccc2cccc(-c3ncc4c(N5CCC[C@@](C)(O)C5)nc(OC[C@@]56CCCN5[C@H](COC(=O)NCCOc5ccc7c(c5)n(C)c(=O)n7C5CCC(=O)NC5=O)CC6)nc4c3F)c12 (stereo partly drawn) [Compound 106, ((3S,7aS)-7a-(((7-(8-ethynyl-7-fluoronaphthalen-1-yl)-8-fluoro-4-((R)-3-hydroxy-3-methylpiperidin-1-yl)pyrido[4,3-d]pyrimidin-2-yl)oxy)methyl)hexahydro-1H-pyrrolizin-3-yl)methyl (2-((1-(2,6-dioxopiperidin-3-yl)-3-methyl-2-oxo-2,3-dihydro-1H-benzo[d]imidazol-5-yl)oxy)ethyl) carbamate] | > 300 | > 100 | Dmax (KRAS G12D; class symbols): < 15%
C#Cc1c(F)ccc2cccc(-c3ncc4c(N5CCC[C@@](C)(O)C5)nc(OC[C@@]56CCCN5[C@H](COC(=O)N5CCC(C7CCN(c8ccc9c(c8)n(C)c(=O)n9C8CCC(=O)NC8=O)CC7)CC5)CC6)nc4c3F)c12 (some centres unmarked) [Compound 152] | – | > 100 | DC50 (KRAS G12D; [1]): > 100 nM
CCc1c(F)ccc2cc(O)cc(-c3ncc4c(N5CCC[C@H](O)C5)nc(OC[C@@]56CCCN5[C@H](COC(=O)N5CCC7(CC5)CC(N5CCC(c8ccc9c(c8)n(C)c(=O)n9C8CCC(=O)NC8=O)CC5)C7)CC6)nc4c3F)c12 (stereo partly drawn) [Compound 354, ((3S,7aS)-7a-(((7-(8-ethyl-7-fluoro-3-hydroxynaphthalen-1-yl)-8-fluoro-4-((S)-3-hydroxypiperidin-1-yl)pyrido[4,3-d]pyrimidin-2-yl)oxy)methyl)hexahydro-1H-pyrrolizin-3-yl)methyl 2-(4-(1-(2,6-dioxopiperidin-3-yl)-3-methyl-2-oxo-2,3-dihydro-1H-benzo[d]imidazol-5-yl)piperidin-1-yl)-7-azaspiro[3.5]nonane-7-carboxylate] | < 100 | < 10 | –
C#Cc1c(F)ccc2cccc(-c3ncc4c(N5CCC[C@@](C)(O)C5)nc(OC[C@@]56CCCN5[C@@H](COC(=O)N5CCC(CN7CCC(c8ccc9c(c8)n(C)c(=O)n9C8CCC(=O)NC8=O)CC7)CC5)CC6)nc4c3F)c12 (some centres unmarked) [Compound 138] | – | > 100 | DC50 (KRAS G12D; [1]): > 100 nM
CCc1cccc2cc(O)cc(-c3cc4nc(OC[C@@]56CCCN5[C@H](COC(=O)N5CCC7(CC5)CC(N5CCC(c8ccc9c(c8)n(C)c(=O)n9C8CCC(=O)NC8=O)CC5)C7)CC6)nc(N5CCC[C@@](C)(O)C5)c4cn3)c12 (stereo partly drawn) [Compound 487, ((3S,7aS)-7a-(((7-(8-ethyl-3-hydroxynaphthalen-1-yl)-4-((R)-3-hydroxy-3-methylpiperidin-1-yl)pyrido[4,3-d]pyrimidin-2-yl)oxy)methyl)hexahydro-1H-pyrrolizin-3-yl)methyl 2-(4-(1-(2,6-dioxopiperidin-3-yl)-3-methyl-2-oxo-2,3-dihydro-1H-benzo[d]imidazol-5-yl)piperidin-1-yl)-7-azaspiro[3.5]nonane-7-carboxylate] | < 100 | < 10 | –
CCc1c(F)ccc2cccc(-c3ncc4c(N5CCC[C@@](C)(O)C5)nc(OC[C@@]56CCCN5[C@H](COC(=O)NCCOc5ccc7c(c5)n(C)c(=O)n7C5CCC(=O)NC5=O)CC6)nc4c3F)c12 (stereo partly drawn) [Compound 111, ((3S,7aS)-7a-(((7-(8-ethyl-7-fluoronaphthalen-1-yl)-8-fluoro-4-((R)-3-hydroxy-3-methylpiperidin-1-yl)pyrido[4,3-d]pyrimidin-2-yl)oxy)methyl)hexahydro-1H-pyrrolizin-3-yl)methyl (2-((1-(2,6-dioxopiperidin-3-yl)-3-methyl-2-oxo-2,3-dihydro-1H-benzo[d]imidazol-5-yl)oxy)ethyl) carbamate] | > 300 | > 100 | –
CCc1c(F)ccc2cc(O)cc(-c3ncc4c(N5CCC[C@@](C)(O)C5)nc(OC[C@@]56CCCN5[C@H](COC(=O)N5CCC7(CC5)CC(N5CCC(c8ccc9c(c8)n(C)c(=O)n9C8CCC(=O)N(C)C8=O)CC5)C7)CC6)nc4c3F)c12 (stereo partly drawn) [Compound 491, ((3S,7aS)-7a-(((7-(8-ethyl-7-fluoro-3-hydroxynaphthalen-1-yl)-8-fluoro-4-((R)-3-hydroxy-3-methylpiperidin-1-yl)pyrido[4,3-d]pyrimidin-2-yl)oxy)methyl)hexahydro-1H-pyrrolizin-3-yl)methyl 2-(4-(3-methyl-1-(1-methyl-2,6-dioxopiperidin-3-yl)-2-oxo-2,3-dihydro-1H-benzo[d]imidazol-5-yl)piperidin-1-yl)-7-azaspiro[3.5]nonane-7-carboxylate] | – | > 100 | –
C#Cc1c(F)ccc2cccc(-c3ncc4c(N5CCC[C@@](C)(O)C5)nc(OC5CCN(CC(=O)N6CCC7(CC6)CC(N6CCC(c8ccc9c(c8)n(C)c(=O)n9C8CCC(=O)NC8=O)CC6)C7)CC5)nc4c3F)c12 (some centres unmarked) [Compound 87] | – | – | DC50 (KRAS G12D; [1]): > 100 nM
C#Cc1c(F)ccc2cc(O)cc(-c3ncc4c(N5CCC[C@@](C)(O)C5)nc(OC[C@@]56CCCN5[C@H](COC(=O)N5CCC(N7CCC(c8cccc9c8n(C)c(=O)n9C8CCC(=O)NC8=O)CC7)CC5)CC6)nc4c3F)c12 (some centres unmarked) [Compound 148] | – | > 100 | –
C#Cc1c(F)ccc2cccc(-c3ncc4c(N5CCC[C@@](C)(O)C5)nc(OCC5(CN6CCC(N7CCC(c8ccc9c(c8)n(C)c(=O)n9C8CCC(=O)NC8=O)CC7)CC6)CC5)nc4c3F)c12 (some centres unmarked) [Compound 39] | > 300 | – | –
